Type in all cases: cell-based, human
Series [1] concerns BT474, MDA-MB-361, MCF-7 and HMEC cells. The series can be described thus: Cell counts after PPARγ antagonist treatment. The note with it: 10 and 20 μM for 72 hrs; % of vehicle. The method, then:
FIG. 3 PPAR. inhibition impacts NR1D1 expression and ERBB2-positive cells viability. (a) Cell counts of BT474, MDA-MB-361, MCF-7 and HMEC cells treated with vehicle, 10 and 20 μM of the PPAR. antagonist GW9662 for 72 hrs. Results represented as % of control (vehicle). (Error bars are s.d from 3 individual experiments; *P>0.2, **P<0.05, ***P<0.002). (b) BT474 cells treated with vehicle or 20 μM of GW9662 for 48 h were immuno-stained for cleaved Caspase-3. (c) Quantification of Caspase-3 signal. (Error bars are s.d from 3 individual experiments; ***P=0.002). (d) aP2 and NR1D1 mRNA levels of BT474 cells treated with vehicle (control) and 20 μM of GW9662 for 48 h, analyzed by qRT-PCRs. (Error bars are s.d from 3 experiments; ***P<0.0006. (e) BMAL1-luc activity of BT474 cells treated with vehicle or 20 μM of GW9662 for 48 h. (Error bars are s.d from 3 individual experiments; **P=0.03). (f) Total ERBB2 western blot of BT474 cells treated with vehicle or 20 μM GW9662 for 72h. GAPDH was used as control.
(§1) Cell viability—apoptosis assays. […] At least 30 fields were imaged per single experiment. […] Immunoblotting. […] PCR reaction was run using standard conditions.

Series [2] deals with BT474 cells. The series can be described thus: Counts of GFP co-transfected BT474 cells (cell death / viability). The note with it: shRNA co-transfected with GFP, counted up to 72 h. The method, then: (§2) Results are shown as percentage of control. (**P=0.03). (c) BT474 cells were transfected with luciferase (control), PBP and NR1D1 shRNAs and co-transfected with GFP. Green cells were counted at intervals and expressed as percentage of control. (Error bars are s.d from 3 individual experiments; *P<0.08, **P<0.03, ***P<0.005). (d) BT474 cells were transfected with luciferase (control), PBP or NR shRNAs for 48 h. Immunofluorescence was performed for cleaved Caspase-3 signal; cell nuclei were stained with Hoechst 33243. (e) Cells from […] were counted for cleaved Caspase-3 signal. (Error bars are s.d from 3 individual experiments; ***P<0.0003). (f) BT474 cells were transfected with luciferase (control) PBP, NR1D1 or PBP and NR1D1 shRNAs together and co-transfected with GFP. Transfected cells were counted at 24 h and 72 h and the 72 h-to-24 h ratio for each shRNA was calculated and expressed as % of the control shRNA (luciferase). (Error bars are s.d from 3 individual experiments; **P=0.01, ***P<0.002). (g) Cells from (f) were counted for cleaved Caspase-3 signal. (Error bars are s.d from 3 individual experiments; ***P<0.0001). (h) ERBB2 mRNA levels of BT474 cells transfected with luciferase (control), PBP or NR1D1 shRNAs for 48 h, analyzed by qRT-PCRs. (Error bars are s.d from 3 individual experiments; ***P=0.0001).
FIG. 4 NR1D1 and PBP coordinate fatty acid metabolism in breast cancer cells. (a) BT474, MDA-MB-361, MCF-7 and HMEC cells were stained with Oil-Red O lipid and hematoxylin nuclear stains. (b) Fat stores were quantified by BODIPY 493/503 lipid probe staining (Error bars are s.d from 3 individual experiments). (c) FASN, ACLY, ACACA and FADS2 mRNA levels of BT474 cells treated with luciferase (control), PBP or NR1D1 shRNAs, or with vehicle and 20 μM of GW9662 for 48 h, analyzed by qRT-PCRs. (Error bars are s.d from 3 experiments; ***P<0.001, **P=0.005) (d) BT474 cells were transfected with FASN, ACLY and ACACA shRNAs and co-transfected with GFP. Transfected cells were counted at 24 h and 72 h and the 72h-to-24 h ratio for each shRNA was calculated and expressed as % of the control shRNA (luciferase). (Error bars are s.d from 3 individual experiments; **P<0.01, ***P<0.002). (e) BODIPY images and (f) quantification of BT474 cells transfected with luciferase (control), PBP or NR1D1 shRNAs and co-transfected with DsRed (Error bars are s.d from 3 individual experiments; ***P<0.03). Arrows indicate transfected cells.
FIG. 5. (a) MDH1 and ME1 mRNA levels of BT474 cells treated with luciferase (control), PBP or NR1D1 shRNAs for 48 h, analyzed by qRT-PCRs. (Error bars are s.d from 3 experiments; **P<0.002 (b) BT474 and MCF-7 cells were transfected with luciferase (control) MDH1 and ME1 shRNAs (Error bars are s.d from 3 individual experiments; ***P=0.0003). (c) BT474 cells) assayed for cleaved Caspase-3 signal by immunofluorescence 48 h after transfection; cell nuclei were stained with Hoechst 33243. (d) Quantification of cleaved Caspase-3 signal from cells in (c). (Error bars are s.d from 3 individual experiments; ***P<0.005). (e) Enzymes involved in fatty acid synthesis and storage that are regulated by NR1D1 and PBP and their proposed contribution to energy production necessary for survival of ERBB2-positive breast cancer cells.
as §1

Series [3] has as its system BT474 cells. The series can be described thus: RNAi screen, alamarBlue cell proliferation and viability. The conditions noted are these: shRNA transfection. The source says:
(§3) FIG. 1 An RNAi screen targeting genes overexpressed in breast cancer. (a) Three transfection mixes were produced for each shRNA and each was transfected into triplicate wells of BT474 cells. AlamarBlue was used to monitor cell proliferation and viability. […] (b) The genetic and functional linkage of NR1D1 and PBP. Mb refers to map position on chromosome 17. (c) ERBB2-overexpressing (OEX) and ERBB2 non-overexpressing (non-OEX) breast cancer cell lines as well as the (non-OEX) HMEC and HEK 293 cells were transfected and assayed as in (a). […] Genes clustered with ERBB2 are boxed.
Amplification of the ERBB2 oncogene occurs in 10-34% of breast cancer cases and is correlated with aggressive disease and poor clinical outcome^1. […] However, its success has been tempered by response rates of only 30% when used as a single agent therapy in patients with metastatic ERBB2-positive breast cancer^2. A large number of genes co-overexpressed with ERBB2 in this tumour type have been proposed to contribute to the aggressiveness of this cancer^3-5. Applicants have performed an unbiased functional RNAi screen^8-10 to determine if any of these co-overexpressed genes are essential for ERBB2 positive breast cancer cell survival.
RNAi screen, transfections and constructs. The flag-RevErba (flag-NR1D1) overexpression construct was a generous gift of M. Lazar. The LSXN-neu* (ERBB2) overexpression construct was a generous gift of L. Petti. shRNA constructs were expressed from the pSHAG-MAGIC 2 (pSM2) vector and derived from a genome-wide shRNA library^31. ShRNAs targeting the firefly (Photinus pyralis) luciferase gene were used as controls. Transfection efficiency was monitored by co-transfection with a modified MSCV-Puro vector expressing green fluorescent protein (GFP). The alamarBlue (Biosource) assay was performed 96 h post-transfection, since BT474 cells have a population doubling time of ˜100 hours. For mature sequences of the shRNAs that produced the best results on decreasing BT474 viability, Table S1; a complete list is available in the RNAi Codex web page (http://codex.cshl.edu). The shRNAs targeting the luciferase gene were constructed as described in the RNAi Codex web page (http://codex.cshl.edu/scripts/newmain.pl) using a modified pSM2 vector containing the PheS gene (pSM2-PheS) in the cloning site, as a negative selection marker. The empty vector control (pSM2e) was constructed by XhoI and EcoRI (New England Biolabs) digestion of pSM2-PheS, followed by nucleotide filling of protruding ends by Klenow polymerase and blunt-end ligation. Transfections were performed using FuGENE 6 and HD FuGENE (Roche) according to the manufacturer's protocol. High-throughput transfections were performed using an EpMotion 5070 fluidics station (Eppendorf). For quantification of alamarBlue we used a BioTek HT Synergy plate reader. AlamarBlue values from the RNAi screens on other cell types were also calculated as above and subjected to hierarchical cluster analysis using Cluster 2.11 (M. Eisen Lab).
(In general: Resazurin is reduced to fluorescent resorufin, in cell work by metabolically active cells.)

The subject of series [4] is BT474 cells. Kind of series: Apoptosis by cleaved Caspase-3 or activated Bax immunofluorescence. The conditions noted are these: 48 h of shRNA or 20 μM GW9662. The protocol: as §2
FIG. 3 PPAR. inhibition impacts NR1D1 expression and ERBB2-positive cells viability. (a) Cell counts of BT474, MDA-MB-361, MCF-7 and HMEC cells treated with vehicle, 10 and 20 μM of the PPAR. antagonist GW9662 for 72 hrs. Results represented as % of control (vehicle). (Error bars are s.d from 3 individual experiments; *P>0.2, **P<0.05, ***P<0.002). […] (c) Quantification of Caspase-3 signal. […] (d) aP2 and NR1D1 mRNA levels of BT474 cells treated with vehicle (control) and 20 μM of GW9662 for 48 h, analyzed by qRT-PCRs. […]
FIG. 5. (a) MDH1 and ME1 mRNA levels of BT474 cells treated with luciferase (control), PBP or NR1D1 shRNAs for 48 h, analyzed by qRT-PCRs. […] (d) Quantification of cleaved Caspase-3 signal from cells in (c). […]

Series [5] has as its system ERBB2 overexpressing (BT474, MDA-MB-361) breast cancer cell lines. The series can be described thus: alamarBlue proliferation of shRNA-transfected ERBB2-overexpressing cell lines. The conditions noted are these: shRNA transfection.
Text: as §3
(§4) To assess the specificity of effect of each shRNA on cell proliferation, those causing the greatest decrease in BT474 cell proliferation were transfected in a variety of cell lines, including ERBB2 overexpressing (BT474, MDA-MB-361) and nonoverexpressing breast cancer cell lines (MCF-7, MDA-MB-453, MDA-MB-468), normal human mammary epithelial cells (HMECs) and a non-breast tumorigenic cell line (HEK 293FT). […] PBP, NRID1 and PFN2 shRNAs clustered with ERBB2.
(§5) RNAi screen, transfections and constructs. The flag-RevErba (flag-NR1D1) overexpression construct was a generous gift of M. Lazar. The LSXN-neu* (ERBB2) overexpression construct was a generous gift of L. Petti. shRNA constructs were expressed from the pSHAG-MAGIC 2 (pSM2) vector and derived from a genome-wide shRNA library^31. ShRNAs targeting the firefly (Photinus pyralis) luciferase gene were used as controls. Transfection efficiency was monitored by co-transfection with a modified MSCV-Puro vector expressing green fluorescent protein (GFP). The alamarBlue (Biosource) assay was performed 96 h post-transfection, since BT474 cells have a population doubling time of ˜100 hours. […] For quantification of alamarBlue we used a BioTek HT Synergy plate reader. AlamarBlue values from the RNAi screens on other cell types were also calculated as above and subjected to hierarchical cluster analysis using Cluster 2.11 (M. Eisen Lab).

The subject of series [6] is nonoverexpressing breast cancer cell lines (MCF-7, MDA-MB-453, MDA-MB-468), HMECs, HEK 293FT. Kind of series: alamarBlue proliferation of shRNA-transfected ERBB2 non-overexpressing cell lines. The note with it: MCF-7, MDA-MB-453, MDA-MB-468, HMEC, shRNA transfection.
Text: as §3, §4, §5

Take `O=C(Nc1ccncc1)c1cc([N+](=O)[O-])ccc1Cl` [second PPARγ antagonist]: the “sensitivity of cells to drug treatment (cell counts)” value in series [1] is “produced the same effects”.
Consider “ACACA shRNA: shRNA, mature sequence CACATGACCTTAAGATTAT (shRNA)”, for which the “cell death / viability (cell number of transfected cells)” value (shortened to “cell death / viability”) in the series with BT474 cells [2] is recorded as “significantly decreased BT474 cell viability”.
Still for that read-out and setting: the result for “ACLY shRNA: shRNA, mature sequence GGGAGGAAGCTGATGAATA (shRNA)” reads “significantly decreased BT474 cell viability”.
As for “CA9 shRNA: shRNA, mature sequence CTTTGAATGGGCGAGTGAT (shRNA)”, the “effect on cell proliferation” value with BT474 cells [3] is “significant effects on proliferation”.
For the molecule “FADS2 shRNA: shRNA, mature sequence CCCATAGGGAGCTGATCGT (shRNA)”, the “effect on cell proliferation” value with BT474 cells [3] is recorded as “moderate effect on cell proliferation”.
“FASN shRNA: shRNA, mature sequence CTGGCCCAGGCTGAAGTTT (shRNA)”: the “effect on cell proliferation” value in the series on BT474 cells [3] is given as “moderate effect on cell proliferation”. The “cell death / viability” value in the series with BT474 cells [2] is listed as “significantly decreased BT474 cell viability”.
Regarding “MAP2K6 shRNA: shRNA, mature sequence CAGATGACCTGGAGCCTAT (shRNA)”, in the series with BT474 cells [3], the “effect on cell proliferation” value is “most dramatic effect on cell proliferation”.
For “MDH1 shRNA: shRNA, mature sequence CGAGCTAAAGCTCAAATTG (shRNA)”, in the series on BT474 cells [2], the “cell death / viability” value is “cell death”. Further, in the series with BT474 cells [4], the apoptosis entry is given as “apoptosis”.
The corresponding values for “ME1 shRNA: shRNA, mature sequence GGCTTTATCCTCCTTTGAA (shRNA)” are “cell death” and “apoptosis”.
With “MKI67 shRNA: shRNA, mature sequence GCTACAAACTCCTAAGGAA (shRNA)”, the “effect on cell proliferation” value in the series with BT474 cells [3] is “significant effects on proliferation”.
In the case of “PFN2 shRNA: shRNA, mature sequence AGCATTACGCCAATAGAAA (shRNA)”, the “viability of ERBB2-positive cells” value in series [5] was “specifically decreased the viability of ERBB2-positive cells”. Further, the “effect on other cell lines or HMECs” value in series [6] is given as “without effect on other cell lines or HMECs”.
For “TPD52 shRNA: shRNA, mature sequence CTGTGAGATTCCTACCTTT (shRNA)”, in the series on BT474 cells [3], the “effect on cell proliferation” value is “significant effects on proliferation”.

The values above are taken from US20100267803A1, “Regulators Of Fat Metabolism As Anti-Cancer Targets” (The Research Foundation of State University Of New York, priority 2008, published 2010).
